Among the data in US20220411419A1, “SMALL MOLECULE MODULATORS OF MHC-I” (RetroVirox, Inc., priority 2018, published 2022) are EC50, CC50 and activity values, retold here.

As a reminder, the EC50 is the concentration that produces a half-maximal response. For orientation: CC50 means the concentration that lowers cell viability or growth by half. A high value points to better tolerance by the cells.

Structures are written as SMILES.

In series [1] the test system is downmodulation of MHC-I molecules expressed on the surface of HIV infected SupT1 cells. The series is described as follows: cells. The conditions noted are these: for EC50: Human immunodeficiency virus 1, SUP-T1, read-out: EC50 for inhibition of MHC-I downmodulation utilizing the R1 parameter; for activity at 100 µM: Human immunodeficiency virus 1, SUP-T1, read-out: R1 @ 100 μM (R1 value for MHC-I downmodulation as % of the vehicle control).

Series [2] can be described thus: in vitro. The following applies: human, uninfected SupT1 cells.

With `Cc1csc(NC(=O)COc2cccc3[nH]ccc23)n1` [Compound 133, 2-((1H-Indol-4-yl)oxy)-N-(4-methylthiazol-2-yl)acetamide], the EC50 in series [1] stood at 1.5 µM. Also, the CC50 at 48 h in series [2] is greater than 100 µM.

For the compound `CC1(C)Cc2cccc(OCC(=O)N(c3ccccc3)c3nc4c(s3)CCCC4)c2O1` [Compound 94, 2-((2,2-Dimethyl-2,3-dihydrobenzofuran-7-yl)oxy)-N-phenyl-N-(4,5,6,7-tetrahydrobenzo[d]thiazol-2-yl)acetamide], the concentration giving a half-maximal response (EC50) in series [1] was 0.0015 µM. Besides, in series [2], the CC50 at 48 h is greater than 125 µM.

On to `CC1(C)Cc2cccc(OCC(=O)Nc3nc(C(C)(C)C)cs3)c2O1` [Compound 23, N-(4-(tert-Butyl)thiazol-2-yl)-2-((2,2-dimethyl-2,3-dihydrobenzofuran-7-yl)oxy)acetamide], for which the EC50 in series [1] was 4.4 µM. Further, the CC50 at 48 h in series [2] was greater than 100 µM.

As for `Cc1ccc(NC(=O)CCc2cccc3c2OC(C)(C)C3)nn1` [Compound 103, 3-(2,2-Dimethyl-2,3-dihydrobenzofuran-7-yl)-N-(6-methylpyridazin-3-yl) propanamide], the EC50 in series [1] was 1.48 µM. Also, the CC50 at 48 h in series [2] is greater than 100 µM.

For `CC1(C)Cc2cccc(OCC(=O)Nc3nc4c(Cl)cccc4s3)c2O1` [Compound 145, N-(4-Chlorobenzo[d]thiazol-2-yl)-2-((2,2-dimethyl-2,3-dihydrobenzofuran-7-yl)oxy)acetamide], the EC50 in series [1] was determined as 0.091 µM. In series [2], this compound showed a CC50 at 48 h greater than 90 µM.

In the case of `CC1(C)Cc2cccc(OCC(=O)N(Cc3ccccc3)c3nc4c(F)cccc4s3)c2O1` [Compound 32, N-Benzyl-2-((2,2-dimethyl-2,3-dihydrobenzofuran-7-yl)oxy)-N-(4-fluorobenzo[d]thiazol-2-yl)acetamide], the EC50 in series [1] was determined as 0.009 µM. Further, the CC50 at 48 h in series [2] is greater than 100 µM.

Consider `CN(C(=O)COc1cccc2c1OC(C)(C)C2)c1ccc(Br)cn1` [Compound 78, N-(5-Bromopyridin-2-yl)-2-((2,2-dimethyl-2,3-dihydrobenzofuran-7-yl)oxy)-N-methylacetamide], for which, in series [1], the EC50 turned out to be 17 µM. The compound also had a CC50 at 48 h in series [2] greater than 125 µM.

On to `CN(C(=O)COc1cccc2c1OC(C)(C)C2)c1nc2c(s1)CCC2` [Compound 162, N-(5,6-Dihydro-4H-cyclopenta[d]thiazol-2-yl)-2-((2,2-dimethyl-2,3-dihydrobenzofuran-7-yl)oxy)-N-methylacetamide], for which, in series [1], the EC50 worked out at 0.027 µM. The CC50 at 48 h in series [2] came out at 124 µM.

For `CN(C(=O)COc1cccc2[nH]ccc12)c1nc2c(s1)CCCC2` [Compound 111, 2-((1H-Indol-4-yl)oxy)-N-methyl-N-(4,5,6,7-tetrahydrobenzo[d]thiazol-2-yl) acetamide], in series [1], the EC50 amounted to 0.18 µM. The CC50 at 48 h in series [2] is greater than 125 µM.

For `CC1(C)Cc2cccc(OCC(=O)Nc3cccc4cccnc34)c2O1` [Compound 178, 2-((2,2-Dimethyl-2,3-dihydrobenzofuran-7-yl)oxy)-N-(quinolin-8-yl) acetamide], in series [1], the EC50 was greater than 25 µM and the activity at 100 µM was 20%. In series [2], this compound displayed a CC50 greater than 25 µM and a CC50 at 48 h greater than 25 µM.

`Cc1ccnc(NC(=O)COc2cccc3c2OC(C)(C)C3)n1` [Compound 179, 2-((2,2-Dimethyl-2,3-dihydrobenzofuran-7-yl)oxy)-N-(4-methylpyrimidin-2-yl)acetamide]: the EC50 in series [1] is greater than 25 µM. The compound further yielded a CC50 at 48 h in series [2] greater than 100 µM.

As for `CC1(C)Cc2cccc(OCC(=O)Nc3nc(C(=O)NCc4ccco4)cs3)c2O1` [Compound 154, 2-(2-((2,2-Dimethyl-2,3-dihydrobenzofuran-7-yl)oxy)acetamido)-N-(furan-2-ylmethyl)thiazole-4-carboxamide], in series [1], the EC50 was greater than 25 µM and the activity at 100 µM was 44%. Further, in series [2], the CC50 was greater than 100 µM and the CC50 at 48 h is greater than 100 µM.

On to `COc1cccc(C)c1OCC(=O)N(C)c1nc2c(s1)CCCC2` [Compound 116, 2-(2-Methoxy-6-methylphenoxy)-N-methyl-N-(4,5,6,7-tetrahydrobenzo[d]thiazol-2-yl)acetamide], for which, in series [1], the EC50 was 0.2 µM. Further, in series [2], the CC50 at 48 h is greater than 125 µM.

For `O=C(COc1cccc2c1OCCO2)Nc1nc2ccccc2s1` [Compound 176, N-(Benzo[d]thiazol-2-yl)-2-((2,3-dihydrobenzo[b][1,4]dioxin-5-yl)oxy) acetamide], in series [1], the EC50 stood at 8.9 µM. Further, the CC50 at 48 h in series [2] was greater than 100 µM.

Take `Cc1ccc(N(C(=O)COc2cccc3c2OC(C)(C)C3)c2ccc(C)nn2)cc1` [Compound 88, 2-((2,2-Dimethyl-2,3-dihydrobenzofuran-7-yl)oxy)-N-(6-methylpyridazin-3-yl)-N-(p-tolyl)acetamide]: the EC50 in series [1] is 3.25 µM. The CC50 at 48 h in series [2] was greater than 100 µM.

Regarding `CC1(C)Cc2cccc(OCC(=O)Nc3nc4c(-c5ccncc5)cccc4s3)c2O1` [Compound 101, 2-((2,2-dimethyl-2,3-dihydrobenzofuran-7-yl)oxy)-N-(4-(pyridin-4-yl)benzo[d]thiazol-2-yl)acetamide], in series [1], the EC50 was greater than 25 µM and the activity at 100 µM worked out at 40%. Further, in series [2], the CC50 was greater than 100 µM and the CC50 at 48 h was greater than 100 µM.

For `Cc1csc(N(CCc2ccccc2)C(=O)COc2cccc3c2OC(C)(C)C3)n1` [Compound 50, 2-((2,2-Dimethyl-2,3-dihydrobenzofuran-7-yl)oxy)-N-(4-methylthiazol-2-yl)-N-phenethylacetamide], the EC50 in series [1] was 14 µM. In series [2], this compound yielded a CC50 at 48 h greater than 125 µM.

Turning to `COc1cccc(F)c1OCC(=O)N(C)c1nc2c(s1)CCCC2` [Compound 124, 2-(2-Fluoro-6-methoxyphenoxy)-N-methyl-N-(4,5,6,7-tetrahydrobenzo[d]thiazol-2-yl)acetamide], the EC50 in series [1] worked out at 0.26 µM. Further, the CC50 at 48 h in series [2] was greater than 125 µM.

Take `CCc1ccc(NC(=O)COc2cccc3c2OC(C)(C)C3)nc1` [Compound 68, 2-((2,2-dimethyl-2,3-dihydrobenzofuran-7-yl)oxy)-N-(5-ethylpyridin-2-yl)acetamide]: the EC50 in series [1] was 0.54 µM. The same compound registered a CC50 at 48 h in series [2] greater than 125 µM.

Turning to `CC1(C)Cc2cccc(OCC(=O)N(Cc3ncccn3)c3nc4c(s3)CCCC4)c2O1` [Compound 44, 2-((2,2-Dimethyl-2,3-dihydrobenzofuran-7-yl)oxy)-N-(pyrimidin-2-ylmethyl)-N-(4,5,6,7-tetrahydrobenzo[d]thiazol-2-yl)acetamide], in series [1], the EC50 was found to be 0.033 µM. In series [2], the 50% cytotoxic concentration (CC50) at 48 h is greater than 125 µM.

In the case of `Cc1ccc(N(C(=O)COc2cccc3c2OC(C)(C)C3)c2nc(C)cs2)nn1` [Compound 93, 2-((2,2-Dimethyl-2,3-dihydrobenzofuran-7-yl)oxy)-N-(6-methylpyridazin-3-yl)-N-(4-methylthiazol-2-yl)acetamide], in series [1], the EC50 was greater than 25 µM and the activity at 100 µM was 65%. In series [2], this compound registered a half-maximal cytotoxic concentration (CC50) greater than 100 µM and a CC50 at 48 h greater than 100 µM.

Turning to `CC1(C)Cc2cccc(OCC(=O)Nc3ccc(Br)nn3)c2O1` [Compound 25, N-(6-Bromopyridazin-3-yl)-2-((2,2-dimethyl-2,3-dihydrobenzofuran-7-yl)oxy)acetamide], the EC50 in series [1] came out at 3.6 µM. Also, the CC50 at 48 h in series [2] was greater than 100 µM.

With `COc1ccccc1OCC(=O)Nc1nc2c(Br)cccc2s1` [Compound 193, N-(4-Bromobenzo[d]thiazol-2-yl)-2-(2-methoxyphenoxy)acetamide], in series [1], the EC50 is greater than 25 µM and the activity at 100 µM was 58%. In series [2], this compound gave a CC50 greater than 90 µM and a CC50 at 48 h greater than 90 µM.

`CCc1ccc(NC(=O)COc2cccc3c2OC(C)(C)C3)nn1` [Compound 85, 2-((2,2-Dimethyl-2,3-dihydrobenzofuran-7-yl)oxy)-N-(6-ethylpyridazin-3-yl)acetamide]: in series [1], the EC50 is 0.38 µM. In series [2], this compound gave a CC50 at 48 h greater than 100 µM.

With `Cc1cccc2sc(NC(=O)COc3cccc4c3OC(C)(C)C4)nc12` [Compound 184, 2-((2,2-Dimethyl-2,3-dihydrobenzofuran-7-yl)oxy)-N-(4-methylbenzo[d]thiazol-2-yl)acetamide], the EC50 in series [1] came out at 3.3 µM. The CC50 at 48 h in series [2] is greater than 90 µM.

`COc1c(Br)cccc1OCC(=O)N(C)c1nc2c(s1)CCCC2` [Compound 118, 2-(3-Bromo-2-methoxyphenoxy)-N-methyl-N-(4,5,6,7-tetrahydrobenzo[d]thiazol-2-yl)acetamide]: the EC50 in series [1] was 2.1 µM. The same compound gave a CC50 at 48 h in series [2] greater than 125 µM.

As for `CC1(C)Cc2cccc(OCC(=O)Nc3nc(C(=O)NCC4CCNC4)cs3)c2O1` (centres unmarked) [Compound 156, 2-(2-((2,2-dimethyl-2,3-dihydrobenzofuran-7-yl)oxy)acetamido)-N-(pyrrolidin-3-ylmethyl)thiazole-4-carboxamide], in series [1], the 50% effective concentration (EC50) is greater than 25 µM and the activity at 100 µM came out at 40%. In series [2], this compound returned a CC50 greater than 90 µM and a CC50 at 48 h greater than 90 µM.

With `CCCN(C(=O)COc1cccc2c1OC(C)(C)C2)c1nc2c(s1)CCCC2` [Compound 57, 2-((2,2-dimethyl-2,3-dihydrobenzofuran-7-yl)oxy)-N-propyl-N-(4,5,6,7-tetrahydrobenzo[d]thiazol-2-yl)acetamide], in series [1], the EC50 amounted to 0.002 µM. In series [2], this compound returned a CC50 at 48 h greater than 125 µM.

Consider `CC1(C)Cc2cccc(OCC(=O)Nc3cccc4nccnc34)c2O1` [Compound 13, 2-((2,2-Dimethyl-2,3-dihydrobenzofuran-7-yl)oxy)-N-(quinoxalin-5-yl) acetamide], for which, in series [1], the half-maximal effective concentration (EC50) was greater than 25 µM and the activity at 100 µM came to 63%. In series [2], the CC50 is greater than 100 µM and the CC50 at 48 h is greater than 100 µM.

For the compound `Cc1ccnc(CN(C(=O)COc2cccc3c2OC(C)(C)C3)c2nc3c(s2)CCCC3)c1` [Compound 41, 2-((2,2-Dimethyl-2,3-dihydrobenzofuran-7-yl)oxy)-N-((4-methylpyridin-2-yl)methyl)-N-(4,5,6,7-tetrahydrobenzo[d]thiazol-2-yl)acetamide], in series [1], the EC50 turned out to be 0.02 µM. This compound gave a half-maximal cytotoxic concentration (CC50) at 48 h in series [2] greater than 125 µM.
